Assay results from patent publication US20130150363A1, “Method of Treating Cancer Using a cMET and AXL Inhibitor and an ErbB Inhibitor” (GlaxoSmithKline, priority 2008, published 2013).

Assays:
[1] = system: SW48 colon carcinoma cells; experiment: Cell growth inhibition (CellTiter-Glo), SW48; type: cell-based; details: Homo sapiens, SW48, 72 h, 3 days
Source text: (§1) Esophageal carcinoma cell line OE33 was purchased from ECACC European Collection of Cell Cultures (UK). Breast cancer cell line JIMT-1 and gastric carcinoma cell line MKN-45 were purchased from Deutsche Sammlung von Mikroorganismen and Zellkulturen GmbH (Germany); KPL-4, a human breast cancer cell line was kindly provided by Prof. J Kurebayashi (Kawasaki Medical School, Kurashiki, Japan). […] The LICR-LON-HN5 head and neck carcinoma cell line (HN5) was a gift from the Institute of Cancer Research, Surrey, U.K. HN5C12 was developed by single-cell cloning of HN5 followed by exposure to increasing concentrations of lapatinib. […] Cell growth inhibition was determined via CellTiter-Glo cell viability assays. […] ATP levels were determined by adding Cell Titer Glo0 (Promega), incubating for 20 minutes then the luminescent signal was read on the SpectraMax M5 plate with a 0.5 second integration time. Cell growth was calculated relative to vehicle (DMSO) treated control wells. […] CI values were calculated with the interpolated IC50 values and the mutually non-exclusive equation derived by Chou and […](a)+Db/IC50(b)+(Da×Db)/(IC50(a)×IC50(b)) where IC50(a) is the IC50 of the inhibitor A; IC50(b) is the IC50 for the inhibitor B; […] […] EOHSA at each dose was calculated as the minimum difference in average % inhibition between the combination and each monotherapy, from the appropriate ANOVA contrast. […]

[2] = system: HT29 colon carcinoma cells; experiment: Cell growth inhibition (CellTiter-Glo), HT29; type: cell-based; details: Homo sapiens, HT-29, 72 h, 3 days
Source text: as §1

BT474-J4 cells = experiment: Cell apoptosis assays (Cell Death ELISA, Caspase-Glo 3/7), BT474-J4; type: cell-based, human; details: BT474-J4, presence of HGF (FIG. 4, FIG. 5B)
Protocol: Cell apoptosis was measured by both a cell death ELISA method, which measures DNA fragmentation, a hallmark of apoptosis; and Caspase-Glo® 3/7 assay which detects the activity of caspase 3/7, one of the execution enzymes for apoptosis in cells.
The Cell Death ELISA^Plus kit (Roche, Mannheim, Germany) was used according to the manufacturer's instructions. Cells were seeded in 96-well plates at 10,000 per well. After 24 h, cells were dosed and grown for an additional 48 h in RPMI 1640 with 10% FBS in 5% CO2 at 37° C. Cytoplasmic fractions of control and treated cells were transferred into streptavidin-coated 96-well plates and incubated with biotinylated mouse antihistone antibody and peroxidase-conjugated mouse anti-DNA antibody at room temperature for 2 h. Absorbance was determined at 405-490 nm using a Spectra Max Gemini microplate reader (Molecular Devices, Sunnyvale, Calif.).
The Caspase-Glo® 3/7 assay (Promega) is a homogeneous luminescent assay that measures caspase-3 and -7 activities. Cells were seeded in 96-well plates at 5,000 per well. […] Caspase 3/7 activity was detected by adding luminogenic caspase-3/7 substrate, which contains the tetrapeptide sequence DEVD, in a reagent optimized for caspase activity, luciferase activity and cell lysis, according to the manufacturer's instructions.

[3] = system: phosphorylation of HER2, AXL, AKT, ERK and cyclin D1 in BT474-J4 cells; experiment: Western blot analysis, BT474-J4; details: BT474-J4, 1 μM each, 4 h
Protocol: Cells were plated at 250,000 to 500,000 per well in six-well plates (Falcon multiwell, Becton Dickinson, Franklin Lakes, N.J.). The following day, cells were treated with compounds in the growth medium containing 10% FBS. After treatment, cells were washed with cold PBS and lysed in the culture dishes using cell lysis buffer [40 mmol/L Tris-HCl (pH 7.4), 10% glycerol, 50 mmol/L beta-glycerophosphate, 5 mmol/L EGTA, 2 mmol/L EDTA, 0.35 mmol/L vanadate, 10 mmol/L NaF, and 0.3% Triton X-100] containing protease inhibitors (Complete Protease Inhibitor Tablets, Boehringer Mannheim, Indianapolis, Ind.). […] The membrane blots were rinsed with PBS and blocked in Odyssey Blocking buffer for 1 h at RT. Blots were probed with antibodies against specific proteins in blocking buffer plus 0.1% Tween 20 and incubated for 2 h at room temperature. The membranes were washed and incubated with IRDye 680 or IRDye 800 secondary antibodies at RT for 1 h in blocking buffer plus 0.1% Tween 20. The membranes were developed with Odyssey Infrared Imaging System (LI-COR Biosciences, Lincoln, Nebr.).
Cell lysate (50 μg of total protein) or proteins immunoprecipitated with anti-phospho-Tyrosine antibody were loaded in SDS-PAGE gel. The antibody against specific protein was used in the western blot analysis.

[4] = system: JIMT-1 breast cancer cells; experiment: Cell growth inhibition (CellTiter-Glo), JIMT-1; type: cell-based; details: Homo sapiens, JIMT-1, 72 h, 3 days
Source text: as §1

[5] = system: BT474-J4 lapatinib resistant breast carcinoma cells; experiment: Cell growth inhibition (CellTiter-Glo), BT474-J4; type: cell-based; details: Homo sapiens; for IC50: 72 h, 3 days
Source text: Esophageal carcinoma cell line OE33 was purchased from ECACC European Collection of Cell Cultures (UK). Breast cancer cell line JIMT-1 and gastric carcinoma cell line MKN-45 were purchased from Deutsche Sammlung von Mikroorganismen and Zellkulturen GmbH (Germany); KPL-4, a human breast cancer cell line was kindly provided by Prof. J Kurebayashi (Kawasaki Medical School, Kurashiki, Japan). […] The LICR-LON-HN5 head and neck carcinoma cell line (HN5) was a gift from the Institute of Cancer Research, Surrey, U.K. HN5C12 was developed by single-cell cloning of HN5 followed by exposure to increasing concentrations of lapatinib. […] Cell growth inhibition was determined via CellTiter-Glo cell viability assays. […] BT474-J4 and HN5C12 were washed with PBS and plated in their culture media without lapatinib. […] ATP levels were determined by adding Cell Titer Glo0 (Promega), incubating for 20 minutes then the luminescent signal was read on the SpectraMax M5 plate with a 0.5 second integration time. Cell growth was calculated relative to vehicle (DMSO) treated control wells. […] Excess Over Highest Single Agent (EOHSA) is defined as a statistically significant improvement in the combination compared to the component monotherapies. […] Analysis was conducted using two-factor analysis of variance with interaction (model terms were dose of drug A, dose of drug B, and interaction between doses of drug A and B), followed by linear contrasts between each combination group and corresponding monotherapies. Analysis was conducted using SAS (version 9, provided by SAS Institute, Cary, N.C.). EOHSA at each dose was calculated as the minimum difference in average % inhibition between the combination and each monotherapy, from the appropriate ANOVA contrast. Since there are many comparisons for the % inhibition endpoint, p-value adjustment for multiple comparisons was performed. Hommel's procedure was implemented in order to improve the power while retaining […] […] The p-values for both synergy and antagonism were calculated using this adjustment.

Q: Which IC50 ([1]; colon_SW48, +HGF (2 ng/mL)) does the source give for `C#Cc1cccc(Nc2ncnc3cc(OCCOC)c(OCCOC)cc23)c1` [Erlotinib, N-(3-ethynylphenyl)-6,7-bis{[2-(methyloxy)ethyl]oxy}-4-quinazolinamine] here?
A: 2.62 µM

Q: What about the IC50 ([1]; colon_SW48, −HGF) of the same compound?
A: 2.35 µM

Q: What about the IC50 ([2]; colon_HT-29, +HGF (2 ng/mL)) of the same compound?
A: > 10 µM

Q: What about the IC50 ([2]; colon_HT-29, −HGF) of the same compound?
A: > 10 µM

Q: Which results are given for `CS(=O)(=O)CCNCc1ccc(-c2ccc3ncnc(Nc4ccc(OCc5cccc(F)c5)c(Cl)c4)c3c2)o1` [Lapatinib, N-(3-chloro-4-{[(3-fluorophenyl)methyl]oxy}phenyl)-6-[5-({[2-(methylsulfonyl)ethyl]amino}methyl)-2-furanyl]-4-quinazolinamine]?
A: apoptosis induction (DNA fragmentation and caspase 3/7 activation) (BT474-J4 cells): only in BT474; phosphorylation of HER2 [3]: inhibits; IC50 ([4]; breast_JimT1, +HGF (2 ng/mL)): > 10 µM; IC50 ([4]; breast_JimT1, −HGF): > 10 µM; IC50 ([5]; breast_BT474-J4, +HGF (2 ng/mL)): > 10 µM; IC50 ([5]; breast_BT474-J4, −HGF): > 10 µM; inhibition at 1 µM ([5]; BT474-J4, lapatinib by itself at 1.0 μM (FIG. 5A)): < 50%
